Consider 3 molecules from article PMC4317577, “Synthetic Covalently Linked Dimeric Form of H2 Relaxin Retains Native RXFP1 Activity and Has Improved In Vitro Serum Stability” (BioMed Research International, 2015).

The conditions of data set [1]: cited from earlier work. On the procedure: Nearly 9 decades since its discovery, the pleotropic peptide H2 relaxin recently completed a successful Phase III clinical trial for the treatment of acute heart failure. Despite this important success, the short in vivo half-life of the peptide (10 mins) necessitates its continuous intravenous infusion for optimum activity. As the in vivo half-life of a peptide or protein is affected by both its degradation by enzymes and renal clearance, it can be improved by, for example, conjugation with large MW compounds such as PEG or by polymerization/aggregation ...

The target of data set [2] is T1, human RXFP2 (Homo sapiens, UniProt Q8WXD0).
T1 construct: expressed in transfected cells; host or cells: HEK-293T
T1 sequence (Q8WXD0 whole entry): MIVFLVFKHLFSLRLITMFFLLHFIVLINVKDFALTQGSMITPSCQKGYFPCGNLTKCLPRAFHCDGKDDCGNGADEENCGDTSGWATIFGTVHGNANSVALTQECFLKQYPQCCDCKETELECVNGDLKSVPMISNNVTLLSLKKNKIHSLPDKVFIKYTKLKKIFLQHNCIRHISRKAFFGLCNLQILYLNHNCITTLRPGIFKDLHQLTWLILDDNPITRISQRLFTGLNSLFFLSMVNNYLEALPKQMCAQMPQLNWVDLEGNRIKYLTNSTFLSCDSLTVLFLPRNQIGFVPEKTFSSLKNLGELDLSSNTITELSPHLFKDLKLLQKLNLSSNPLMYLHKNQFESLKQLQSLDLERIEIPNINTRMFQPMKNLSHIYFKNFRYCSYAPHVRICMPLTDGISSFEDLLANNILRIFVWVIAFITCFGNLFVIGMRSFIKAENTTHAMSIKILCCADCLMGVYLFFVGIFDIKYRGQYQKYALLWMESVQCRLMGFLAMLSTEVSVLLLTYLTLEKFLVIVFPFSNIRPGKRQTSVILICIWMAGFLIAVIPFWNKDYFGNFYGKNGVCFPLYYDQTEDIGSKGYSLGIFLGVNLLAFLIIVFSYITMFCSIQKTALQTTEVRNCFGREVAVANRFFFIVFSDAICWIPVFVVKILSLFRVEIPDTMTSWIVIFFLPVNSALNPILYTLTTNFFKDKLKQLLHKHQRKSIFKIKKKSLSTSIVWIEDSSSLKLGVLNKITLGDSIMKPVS
Description: cAMP reporter gene (pCRE β-galactosidase) assay in RXFP2 expressing HEK-293T cells. The format is cell-based. To be noted: HEK-293T cells expressing RXFP2, pCRE β-galactosidase reporter, 6 h at 37°C; at least three independent experiments in triplicate. On the procedure: The influence of cAMP signaling by synthetic analogues in HEK-293T cells expressing either human RXFP1 or RXFP2 receptors was assessed using cAMP reporter gene assay as described previously. Briefly, HEK-293T cotransfected with response element pCRE β-galactosidase reporter plasmid were plated out in Corning Cell BIND 96-well plate at 50 000 cells per well per 200 μL. 24 h later, cotransfected cells were treated with increasing concentrations of H2 relaxin analogues in parallel with native H2 relaxin or human INSL3. After 6 h incubation at 37°C, cell media were aspirated and cells were frozen at −80°C overnight. A β-galactosidase colorimetric assay measuring absorbance at 570 nm on Benchmark Plus microplate spectrophotometer (Bio-Rad, Gladesville, Australia) was then used to measure relative cAMP responses. Each concentration point was measured in triplicate and each experiment performed independently at least three times. Ligand-induced stimulation of cAMP was expressed as a percentage of the maximum H2 relaxin response for RXFP1 cells or human INSL3 for RXFP2 cells. GraphPad Prism 5 was used to analyze the cAMP activity assay which was expressed as the mean ± S.E.M. Statistical analysis was conducted using one-way ANOVA with Newman-Keuls post hoc analysis.

Data set [3] in a line: In vitro serum stability. It is filed as in vitro ADME. To be noted: 100% human serum; 100% male human serum, not heat inactivated, 37°C; 10.0 μL of 1.0 mg/mL peptide in 590 μL serum; samples 0-6 h, acetonitrile/0.1% TFA quench, RP-HPLC (C4) peak area; triplicate. On the procedure: The stability of the synthetic analogue was measured against native H2 relaxin in human serum. The purchased serum was not heat inactivated in order to retain as much of its proteolytic enzymic activity as possible. The peptides tested were normalized to a final concentration of 1.0 mg/mL with deionized water, and 10.0 μL of peptides was added to 590 μL 100% human serum. After addition of peptide into the serum, 50 μL of samples was removed and quenched with 250 μL of ice-cold acetonitrile/0.1% TFA. The solution was then spun down with a benchtop centrifuge at 13,500 rpm (Eppendorf Centrifuge 5804R, Melbourne, Australia) for 15 mins at 4°C to pellet the larger, precipitated serum proteins. The remaining peptide/serum solution was placed immediately into 37°C incubator. Degradation of peptides was monitored with manual RP-HPLC injections of supernatant using a Phenomenex Aeris Widepore 3.6 μm C4 analytical column (pore size, 100 Å; particle size 4.6 × 250 mm), in a stabilized gradient mode with eluent A: 0.1% aq TFA and eluant B: 0.1% TFA in acetonitrile. Samples were taken at time points 0.5, 1.0, 1.5, 2.0, 2.5, 3, 4, 5, and 6 h. […] Nonspecific peptide degradation was measured by peptide degradation in serum at 0 h. […] GraphPad Prism 5 was used to analyze the peptide degradation in serum which was expressed as the mean ratio ± S.E.M. and Microsoft Excel was used to graph all data. […]

As to “dimeric erythropoietin: dimeric erythropoietin formed by chemical crosslinking of the monomer”, in data set [1], the “activity in vivo relative to monomer” value is given as 26 fold and the “plasma half-life in rabbits” value is “more than 24 h”.
As for “erythropoietin monomer: erythropoietin monomer”, in data set [1], the “plasma half-life in rabbits” value was 4 h.
For `CC[C@H](C)[C@@H]1NC(=O)[C@H](C)NC(=O)[C@H](CC(C)C)NC(=O)[C@H](CCC(N)=O)NC(=O)[C@H](C)NC(=O)[C@H](CCCNC(=N)N)NC(=O)[C@H](C(C)C)NC(=O)[C@H](CC(C)C)NC(=O)[C@H](CCC(=O)O)NC(=O)[C@H](CCCNC(=N)N)NC(=O)CNC(=O)[C@@H](NC(=O)[C@H](CC(C)C)NC(=O)[C@H](CCCCN)NC(=O)[C@@H](NC(=O)[C@@H](NC(=O)[C@H](CCC(=O)O)NC(=O)[C@H](CCC(=O)O)NC(=O)[C@H](CCSC)NC(=O)[C@H](Cc2c[nH]c3ccccc23)NC(=O)[C@H](CO)NC(=O)[C@H](CC(=O)O)NC(=O)[C@@H](N)Cc2cn(CCOCCOCCOCCOCCOCCOCCOCCn3cc(C[C@H](N)C(=O)N[C@@H](CC(=O)O)C(=O)N[C@@H](CO)C(=O)N[C@@H](Cc4c[nH]c5ccccc45)C(=O)N[C@@H](CCSC)C(=O)N[C@@H](CCC(=O)O)C(=O)N[C@@H](CCC(=O)O)C(=O)N[C@H](C(=O)N[C@H](C(=O)N[C@@H](CCCCN)C(=O)N[C@@H](CC(C)C)C(=O)N[C@H]4CSSC[C@@H]5NC(=O)[C@@H](NC(=O)[C@H](CCCCN)NC(=O)[C@H](CC(N)=O)NC(=O)[C@H](C)NC(=O)[C@H](CC(C)C)NC(=O)[C@H](C)NC(=O)[C@H](CO)NC(=O)[C@H](Cc6ccc(O)cc6)NC(=O)[C@H](CC(C)C)NC(=O)[C@@H]6CCC(=O)N6)CSSC[C@H](NC(=O)CNC(=O)[C@H](C(C)C)NC(=O)[C@H](Cc6c[nH]cn6)NC5=O)C(=O)N[C@@H]([C@@H](C)O)C(=O)N[C@@H](CCCCN)C(=O)N[C@@H](CCCNC(=N)N)C(=O)N[C@@H](CO)C(=O)N[C@@H](CC(C)C)C(=O)N[C@@H](C)C(=O)N[C@@H](CCCNC(=N)N)C(=O)N[C@@H](Cc5ccccc5)C(=O)N[C@H](C(N)=O)CSSC[C@@H](C(=O)NCC(=O)N[C@@H](CCSC)C(=O)N[C@@H](CO)C(=O)N[C@H](C(=O)N[C@@H](Cc5c[nH]c6ccccc56)C(=O)N[C@@H](CO)C(N)=O)[C@@H](C)O)NC(=O)[C@H]([C@@H](C)CC)NC(=O)[C@H](C)NC(=O)[C@H](CC(C)C)NC(=O)[C@H](CCC(N)=O)NC(=O)[C@H](C)NC(=O)[C@H](CCCNC(=N)N)NC(=O)[C@H](C(C)C)NC(=O)[C@H](CC(C)C)NC(=O)[C@H](CCC(=O)O)NC(=O)[C@H](CCCNC(=N)N)NC(=O)CNC4=O)[C@@H](C)CC)C(C)C)nn3)nn2)C(C)C)[C@@H](C)CC)CSSC[C@@H]2NC(=O)[C@@H](NC(=O)[C@H](CCCCN)NC(=O)[C@H](CC(N)=O)NC(=O)[C@H](C)NC(=O)[C@H](CC(C)C)NC(=O)[C@H](C)NC(=O)[C@H](CO)NC(=O)[C@H](Cc3ccc(O)cc3)NC(=O)[C@H](CC(C)C)NC(=O)[C@@H]3CCC(=O)N3)CSSC[C@H](NC(=O)CNC(=O)[C@H](C(C)C)NC(=O)[C@H](Cc3c[nH]cn3)NC2=O)C(=O)N[C@@H]([C@@H](C)O)C(=O)N[C@@H](CCCCN)C(=O)N[C@@H](CCCNC(=N)N)C(=O)N[C@@H](CO)C(=O)N[C@@H](CC(C)C)C(=O)N[C@@H](C)C(=O)N[C@@H](CCCNC(=N)N)C(=O)N[C@@H](Cc2ccccc2)C(=O)N[C@H](C(N)=O)CSSC[C@@H](C(=O)NCC(=O)N[C@@H](CCSC)C(=O)N[C@@H](CO)C(=O)N[C@H](C(=O)N[C@@H](Cc2c[nH]c3ccccc23)C(=O)N[C@@H](CO)C(N)=O)[C@@H](C)O)NC1=O` [H2 (PEG)7 H2 dimer], in data set [2], the “cAMP activation at RXFP2 compared with H2 relaxin” value was “significantly weaker activation propensity”. For the same molecule, the half-life at 16.7 µg/mL in data set [3] was 2.52 h.
